Source: the NIST ThermoML archive (doi:10.1016/j.fluid.2018.06.004)

Conditions: 101.33 kPa, Liquid, transient hot wire

CCCCCCCCCC(=O)OCC [ethyl decanoate]
Conditions	thermal conductivity [W/m/K]
270 K	0.1483
279.98 K	0.1463
289.85 K	0.1442
299.64 K	0.1422
309.6 K	0.14
319.72 K	0.1375
329.53 K	0.1355
339.49 K	0.1332
349.51 K	0.1307
359.46 K	0.1284
369.3 K	0.1266
374.44 K	0.1248
379.49 K	0.1238
389.25 K	0.1214
400.44 K	0.1195

CCO [ethanol]
Conditions	thermal conductivity [W/m/K]
276.51 K	0.1719
280.8 K	0.1687
284.27 K	0.1699
290.37 K	0.1677
293.43 K	0.1658

CCCCCCC(=O)OCC [ethyl heptanoate]
Conditions	thermal conductivity [W/m/K]
250.38 K	0.1482
260.21 K	0.1463
270.16 K	0.1441
280.02 K	0.1414
289.93 K	0.1397
299.84 K	0.137
309.9 K	0.1343
319.73 K	0.1321
329.73 K	0.1294
337.72 K	0.127
341.71 K	0.1259
347.65 K	0.1251
353.6 K	0.1235
363.5 K	0.121
373.51 K	0.1183
383.64 K	0.1155
393.46 K	0.1139

CCCCCCCCCCCCCC(=O)OCC [ethyl tetradecanoate]
Conditions	thermal conductivity [W/m/K]
290.64 K	0.1515
298.29 K	0.1501
307.33 K	0.1481
315.2 K	0.1465
324.22 K	0.1448
333.17 K	0.1426
340.99 K	0.1406
350.11 K	0.1383
359.07 K	0.137
367.97 K	0.1342
377.86 K	0.1326
389.06 K	0.1297
393.88 K	0.1286

CCCCCCCCCCCC(=O)OCC [ethyl dodecanoate]
Conditions	thermal conductivity [W/m/K]
274.73 K	0.151
284.69 K	0.1489
294.56 K	0.1471
304.59 K	0.1446
314.47 K	0.1424
324.41 K	0.1399
334.28 K	0.1377
344.09 K	0.1362
349.21 K	0.1343
354.09 K	0.1334
359.09 K	0.1321
369.13 K	0.1296
379.1 K	0.1275
389.1 K	0.1253
400.08 K	0.1229

CCCCCCCC(=O)OCC [ethyl octanoate]
Conditions	thermal conductivity [W/m/K]
254.76 K	0.1484
264.72 K	0.1462
274.7 K	0.144
284.63 K	0.1422
294.53 K	0.1405
300.47 K	0.1387
307.05 K	0.1366
310.45 K	0.1356
320.37 K	0.1336
330.4 K	0.1312
340.34 K	0.1286
350.38 K	0.1268
360.32 K	0.1234
370.25 K	0.1211
380.17 K	0.1188
390.39 K	0.1167
400.37 K	0.1142

O [water]
Conditions	thermal conductivity [W/m/K]
293.09 K	0.6056
299.55 K	0.613
309.83 K	0.6313
314.96 K	0.6399
319.56 K	0.6399
324.64 K	0.6492
332.53 K	0.6555
339.33 K	0.657
340.41 K	0.6654
349.41 K	0.6723
